In general, solubility refers to how much of the substance goes into solution per volume.

The structures appear in SMILES notation. Values after ≈ are worked out from the molar mass of the structure shown.

The data set is described as follows: Solubility of parent compounds and prodrugs in phosphate buffer. The class given is physicochemical. The note with it: aqueous buffer, thermodynamic from solid, 25° C., more than 4 weeks, pH 7.0. How it is done:
Parent compounds: About 5 mg of parent compounds (biologically active forms of prodrugs) were added to 950 μL of phosphate buffer, and mixed vigorously for 1 hour at 25° C. Then, these samples were stored at 25° C. for more than 4 weeks and filtered to remove undissolved parent compounds. Next, these solutions were diluted with 50% aqueous acetonitrile solution. The resulting test solutions were assayed by HPLC. Prodrugs: About 30 mg of prodrugs were added to 120 μL of phosphate buffer, and mixed vigorously for 1 hour at 25° C. After shaking, pH of these solutions were adjusted at pH 7.0 by 1 mol/L NaOH solution. Then, the total volume were adjusted to 280 μL with purified water. Next, these solutions were stored at 25° C. for more than 4 weeks and filtered to remove undissolved compounds. These solutions were diluted with 50% aqueous acetonitrile solution. The resulting test solutions were assayed by HPLC.

[1] abbreviates: parent compound, phosphate buffer.
Where [2] appears, read: prodrug, phosphate buffer adjusted with NaOH.

For the compound `CCc1[nH]c(C(=O)N[C@@H]2CCN(c3nnc([C@](C)(O)CO)s3)C[C@@H]2OC)nc1Cl` [Compound A, 4-chloro-N-[(3S,4R)-1-{5-[(2R)-1,2-dihydroxypropan-2-yl]-1,3,4-thiadiazol-2-yl}-3-methoxypiperidin-4-yl]-5-ethyl-1H-imidazole-2-carboxamide], the solubility under setting [1] worked out at 0.775 mg/mL (≈ 1740 µM). Consider `CCc1[nH]c(C(=O)N[C@@H]2CCN(c3nnc([C@@H](O)CO)s3)C[C@@H]2OC)nc1Cl` [Compound B, 4-chloro-N-[(3S,4R)-1-{5-[(1S)-1,2-dihydroxyethyl]-1,3,4-thiadiazol-2-yl}-3-methoxypiperidin-4-yl]-5-ethyl-1H-imidazole-2-carboxamide], for which the solubility under setting [1] came out at 0.38 mg/mL (≈ 882 µM). With `CCc1c(Cl)nc(C(=O)N[C@@H]2CCN(c3nnc([C@H](C)O)s3)C[C@@H]2OC)n1COP(=O)(O)O` [Compound No. 5, (4-Chloro-5-ethyl-2-{[(3S,4R)-1-{5-[(1S)-1-hydroxyethyl]-1,3,4-thiadiazol-2-yl}-3-methoxypiperidin-4-yl]carbamoyl}-1H-imidazol-1-yl)methyl dihydrogen phosphate], the solubility under setting [2] stood at 101 mg/mL. As for `CCc1nc(C(=O)N[C@@H]2CCN(c3nnc([C@H](C)O)s3)C[C@@H]2OC)n(COP(=O)(O)O)c1Cl` [Compound No. 6, (5-Chloro-4-ethyl-2-{[(3S,4R)-1-{5-[(1S)-1-hydroxyethyl]-1,3,4-thiadiazol-2-yl}-3-methoxypiperidin-4-yl]carbamoyl}-1H-imidazol-1-yl)methyl dihydrogen phosphate], the solubility under setting [2] was determined as 104 mg/mL.

On to `CCc1c(Cl)nc(C(=O)N[C@@H]2CCN(c3nnc([C@H](O)CO)s3)C[C@@H]2OC)n1COP(=O)(O)O` [Compound No. 7, (4-Chloro-2-{[(3S,4R)-1-{5-[(1R)-1,2-dihydroxyethyl]-1,3,4-thiadiazol-2-yl}-3-methoxypiperidin-4-yl]carbamoyl}-5-ethyl-1H-imidazol-1-yl)methyl dihydrogen phosphate], for which, under setting [2], the solubility was 107 mg/mL. For the compound `CCc1nc(C(=O)N[C@@H]2CCN(c3nnc([C@H](O)CO)s3)C[C@@H]2OC)n(COP(=O)(O)O)c1Cl` [Compound No. 8, (5-Chloro-2-{[(3S,4R)-1-{5-[(1R)-1,2-dihydroxyethyl]-1,3,4-thiadiazol-2-yl}-3-methoxypiperidin-4-yl]carbamoyl}-4-ethyl-1H-imidazol-1-yl)methyl dihydrogen phosphate], the solubility under setting [2] is 102 mg/mL. On to `CCc1nc(C(=O)N[C@@H]2CCN(c3nnc([C@@H](O)CO)s3)C[C@@H]2OC)n(COP(=O)(O)O)c1Cl` [Compound No. 10, (5-Chloro-2-{[(3S,4R)-1-{5-[(1S)-1,2-dihydroxyethyl]-1,3,4-thiadiazol-2-yl}-3-methoxypiperidin-4-yl]carbamoyl}-4-ethyl-1H-imidazol-1-yl)methyl dihydrogen phosphate], for which the solubility under setting [2] is 105 mg/mL.

The values above are taken from patent publication US10752647B2, “N-phosphonoxymethyl prodrugs of hydroxyalkyl thiadiazole derivatives” (DAIICHI SANKYO COMPANY, LIMITED, priority 2017, dated 2020).
